Test [1] deals with T1, Peroxisomal acyl-coenzyme A oxidase 3 (Homo sapiens, UniProt O15254).
T1 sequence (O15254 whole entry): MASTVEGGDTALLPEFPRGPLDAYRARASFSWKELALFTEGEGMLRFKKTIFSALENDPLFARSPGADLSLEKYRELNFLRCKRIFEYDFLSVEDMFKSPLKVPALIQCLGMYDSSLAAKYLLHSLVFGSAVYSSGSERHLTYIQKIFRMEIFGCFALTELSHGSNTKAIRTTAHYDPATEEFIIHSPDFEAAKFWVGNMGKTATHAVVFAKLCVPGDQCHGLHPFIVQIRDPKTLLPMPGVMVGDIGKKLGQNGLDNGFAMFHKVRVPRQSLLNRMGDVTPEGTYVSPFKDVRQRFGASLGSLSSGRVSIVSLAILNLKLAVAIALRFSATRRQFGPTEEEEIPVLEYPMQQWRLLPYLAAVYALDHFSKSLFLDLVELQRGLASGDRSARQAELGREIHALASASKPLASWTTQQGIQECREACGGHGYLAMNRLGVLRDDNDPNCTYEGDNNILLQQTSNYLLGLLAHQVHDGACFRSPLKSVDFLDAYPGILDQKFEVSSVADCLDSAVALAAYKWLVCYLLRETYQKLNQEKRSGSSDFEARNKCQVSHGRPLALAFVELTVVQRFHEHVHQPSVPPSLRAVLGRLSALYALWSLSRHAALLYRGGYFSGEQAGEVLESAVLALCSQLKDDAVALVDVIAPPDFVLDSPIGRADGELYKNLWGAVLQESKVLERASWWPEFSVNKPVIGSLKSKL

For test [2], the target named is T2, Beta-adrenergic receptor kinase 1 (Homo sapiens, UniProt P25098).
T2 sequence (P25098 whole entry): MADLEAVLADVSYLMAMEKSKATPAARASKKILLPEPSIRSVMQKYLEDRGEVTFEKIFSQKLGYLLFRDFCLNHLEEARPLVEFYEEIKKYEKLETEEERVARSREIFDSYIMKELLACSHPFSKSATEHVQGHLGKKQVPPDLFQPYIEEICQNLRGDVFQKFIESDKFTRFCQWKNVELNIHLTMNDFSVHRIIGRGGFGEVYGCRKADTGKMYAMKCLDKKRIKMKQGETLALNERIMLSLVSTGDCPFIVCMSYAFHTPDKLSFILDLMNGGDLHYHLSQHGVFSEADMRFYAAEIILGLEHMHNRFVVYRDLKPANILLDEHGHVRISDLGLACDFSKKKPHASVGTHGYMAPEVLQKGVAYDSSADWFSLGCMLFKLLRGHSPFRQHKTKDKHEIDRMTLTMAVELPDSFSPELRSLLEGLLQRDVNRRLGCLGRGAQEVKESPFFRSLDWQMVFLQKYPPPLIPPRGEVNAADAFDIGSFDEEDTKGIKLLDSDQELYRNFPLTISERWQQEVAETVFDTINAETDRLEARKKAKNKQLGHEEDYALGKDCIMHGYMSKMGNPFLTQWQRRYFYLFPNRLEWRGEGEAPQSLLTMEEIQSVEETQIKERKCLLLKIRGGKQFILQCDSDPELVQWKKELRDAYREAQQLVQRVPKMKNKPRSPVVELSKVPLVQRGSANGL

For test [3], the target named is BMP-2-inducible protein kinase (Homo sapiens, UniProt Q9NSY1).
Test [4] has as its target T3, ATP-dependent RNA helicase DDX1 (Homo sapiens, UniProt Q92499).
T3 sequence (Q92499 whole entry): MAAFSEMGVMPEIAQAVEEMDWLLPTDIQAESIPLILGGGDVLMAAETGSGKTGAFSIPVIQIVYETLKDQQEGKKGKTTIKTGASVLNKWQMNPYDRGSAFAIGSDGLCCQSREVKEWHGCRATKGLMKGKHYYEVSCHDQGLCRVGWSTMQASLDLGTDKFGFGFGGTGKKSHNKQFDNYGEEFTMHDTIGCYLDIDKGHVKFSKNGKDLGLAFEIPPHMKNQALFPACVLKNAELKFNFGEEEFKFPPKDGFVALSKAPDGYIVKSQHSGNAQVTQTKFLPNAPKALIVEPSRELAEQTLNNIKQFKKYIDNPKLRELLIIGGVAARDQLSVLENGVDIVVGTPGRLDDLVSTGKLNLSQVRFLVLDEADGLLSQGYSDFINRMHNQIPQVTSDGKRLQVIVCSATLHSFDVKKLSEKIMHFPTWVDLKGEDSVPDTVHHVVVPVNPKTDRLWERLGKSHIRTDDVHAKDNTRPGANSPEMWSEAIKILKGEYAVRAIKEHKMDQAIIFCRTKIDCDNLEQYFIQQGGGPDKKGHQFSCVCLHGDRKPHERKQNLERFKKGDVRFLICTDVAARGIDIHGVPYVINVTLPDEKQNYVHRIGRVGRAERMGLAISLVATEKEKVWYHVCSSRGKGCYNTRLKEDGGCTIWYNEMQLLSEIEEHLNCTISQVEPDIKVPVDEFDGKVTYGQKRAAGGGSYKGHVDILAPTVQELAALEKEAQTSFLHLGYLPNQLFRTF

Test [5] has as its target Tyrosine-protein kinase Fer (Homo sapiens, UniProt P16591).
Test [6] deals with Tyrosine-protein kinase Lyn (Homo sapiens, UniProt P07948).
In test [7] the target is Serine/threonine-protein kinase N2 (Homo sapiens, UniProt Q16513).
Test [8] addresses U5 small nuclear ribonucleoprotein 200 kDa helicase (Homo sapiens, UniProt O75643).
Test [9] concerns the target T4, Serine/threonine-protein kinase 3 (Homo sapiens, UniProt Q13188).
T4 sequence (Q13188 whole entry): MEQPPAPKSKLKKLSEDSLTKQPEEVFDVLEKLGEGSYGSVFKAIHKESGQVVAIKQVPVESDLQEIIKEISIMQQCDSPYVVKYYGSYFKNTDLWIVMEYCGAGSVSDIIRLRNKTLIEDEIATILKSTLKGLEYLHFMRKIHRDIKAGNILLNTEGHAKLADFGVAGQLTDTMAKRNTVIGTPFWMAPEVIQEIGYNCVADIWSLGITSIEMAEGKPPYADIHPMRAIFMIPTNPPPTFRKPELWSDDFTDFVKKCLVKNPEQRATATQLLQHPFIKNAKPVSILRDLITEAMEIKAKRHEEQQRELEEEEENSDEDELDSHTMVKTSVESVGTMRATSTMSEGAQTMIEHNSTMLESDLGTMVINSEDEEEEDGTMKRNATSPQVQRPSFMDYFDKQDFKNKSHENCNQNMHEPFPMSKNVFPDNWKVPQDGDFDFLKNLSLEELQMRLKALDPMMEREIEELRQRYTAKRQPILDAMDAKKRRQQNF

Test [10] addresses Tyrosine-protein kinase SYK (Homo sapiens, UniProt P43405).

One may read the Kd as the free concentration of one partner at which half of the binding sites on the other are occupied at equilibrium, for simple one-to-one binding.

Active and inactive are the calls of the source. Rule as the data show it, for most assays here: actives have a measured Kd and inactives only a lower limit.
Also: in the data inactive means no Kd found up to 30 µM.

Chain of BMP-2-inducible protein kinase (Q9NSY1 whole entry): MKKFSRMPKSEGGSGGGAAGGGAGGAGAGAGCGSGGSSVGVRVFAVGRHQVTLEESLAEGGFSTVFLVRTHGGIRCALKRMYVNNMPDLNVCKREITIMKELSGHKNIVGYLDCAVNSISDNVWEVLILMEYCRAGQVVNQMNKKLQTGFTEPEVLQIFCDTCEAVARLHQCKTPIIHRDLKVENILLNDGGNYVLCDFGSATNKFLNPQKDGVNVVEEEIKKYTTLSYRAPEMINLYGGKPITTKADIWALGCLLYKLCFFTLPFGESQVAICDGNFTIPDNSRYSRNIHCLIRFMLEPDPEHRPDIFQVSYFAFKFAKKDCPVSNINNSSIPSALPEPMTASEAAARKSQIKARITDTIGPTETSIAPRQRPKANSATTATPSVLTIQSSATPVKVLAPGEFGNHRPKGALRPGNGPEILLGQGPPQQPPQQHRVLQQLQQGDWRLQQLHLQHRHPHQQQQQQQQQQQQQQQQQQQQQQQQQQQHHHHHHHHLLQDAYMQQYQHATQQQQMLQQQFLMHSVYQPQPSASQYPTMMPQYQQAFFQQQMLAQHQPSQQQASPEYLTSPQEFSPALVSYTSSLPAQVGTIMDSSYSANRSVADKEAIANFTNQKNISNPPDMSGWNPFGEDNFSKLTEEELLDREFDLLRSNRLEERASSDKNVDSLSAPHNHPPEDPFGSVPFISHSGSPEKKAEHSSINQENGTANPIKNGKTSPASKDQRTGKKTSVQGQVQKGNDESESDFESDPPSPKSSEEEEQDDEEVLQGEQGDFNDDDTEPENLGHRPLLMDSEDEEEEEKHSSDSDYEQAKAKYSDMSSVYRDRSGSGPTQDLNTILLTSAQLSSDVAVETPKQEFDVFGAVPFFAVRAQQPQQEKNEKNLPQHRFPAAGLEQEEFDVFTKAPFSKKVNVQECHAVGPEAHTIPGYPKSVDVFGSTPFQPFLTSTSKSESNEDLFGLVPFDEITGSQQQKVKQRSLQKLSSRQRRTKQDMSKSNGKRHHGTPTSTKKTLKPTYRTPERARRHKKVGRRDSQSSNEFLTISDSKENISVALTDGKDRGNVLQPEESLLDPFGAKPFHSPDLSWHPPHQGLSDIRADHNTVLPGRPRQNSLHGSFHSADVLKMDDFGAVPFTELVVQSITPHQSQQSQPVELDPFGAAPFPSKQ
Chain of Tyrosine-protein kinase Lyn (P07948 whole entry): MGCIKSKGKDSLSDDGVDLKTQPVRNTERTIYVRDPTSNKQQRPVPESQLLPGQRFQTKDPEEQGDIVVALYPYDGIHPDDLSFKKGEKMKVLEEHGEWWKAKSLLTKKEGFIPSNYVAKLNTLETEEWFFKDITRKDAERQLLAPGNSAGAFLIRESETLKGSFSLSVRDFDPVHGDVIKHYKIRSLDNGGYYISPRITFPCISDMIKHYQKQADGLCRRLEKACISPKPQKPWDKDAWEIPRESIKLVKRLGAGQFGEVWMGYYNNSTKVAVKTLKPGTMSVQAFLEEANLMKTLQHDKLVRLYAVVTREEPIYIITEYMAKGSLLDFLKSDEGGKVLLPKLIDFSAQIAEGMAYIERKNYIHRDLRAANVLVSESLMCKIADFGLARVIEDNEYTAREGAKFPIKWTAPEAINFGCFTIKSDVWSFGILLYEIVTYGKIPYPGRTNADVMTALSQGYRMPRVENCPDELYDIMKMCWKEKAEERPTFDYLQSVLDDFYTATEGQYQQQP
Chain of U5 small nuclear ribonucleoprotein 200 kDa helicase (O75643 whole entry): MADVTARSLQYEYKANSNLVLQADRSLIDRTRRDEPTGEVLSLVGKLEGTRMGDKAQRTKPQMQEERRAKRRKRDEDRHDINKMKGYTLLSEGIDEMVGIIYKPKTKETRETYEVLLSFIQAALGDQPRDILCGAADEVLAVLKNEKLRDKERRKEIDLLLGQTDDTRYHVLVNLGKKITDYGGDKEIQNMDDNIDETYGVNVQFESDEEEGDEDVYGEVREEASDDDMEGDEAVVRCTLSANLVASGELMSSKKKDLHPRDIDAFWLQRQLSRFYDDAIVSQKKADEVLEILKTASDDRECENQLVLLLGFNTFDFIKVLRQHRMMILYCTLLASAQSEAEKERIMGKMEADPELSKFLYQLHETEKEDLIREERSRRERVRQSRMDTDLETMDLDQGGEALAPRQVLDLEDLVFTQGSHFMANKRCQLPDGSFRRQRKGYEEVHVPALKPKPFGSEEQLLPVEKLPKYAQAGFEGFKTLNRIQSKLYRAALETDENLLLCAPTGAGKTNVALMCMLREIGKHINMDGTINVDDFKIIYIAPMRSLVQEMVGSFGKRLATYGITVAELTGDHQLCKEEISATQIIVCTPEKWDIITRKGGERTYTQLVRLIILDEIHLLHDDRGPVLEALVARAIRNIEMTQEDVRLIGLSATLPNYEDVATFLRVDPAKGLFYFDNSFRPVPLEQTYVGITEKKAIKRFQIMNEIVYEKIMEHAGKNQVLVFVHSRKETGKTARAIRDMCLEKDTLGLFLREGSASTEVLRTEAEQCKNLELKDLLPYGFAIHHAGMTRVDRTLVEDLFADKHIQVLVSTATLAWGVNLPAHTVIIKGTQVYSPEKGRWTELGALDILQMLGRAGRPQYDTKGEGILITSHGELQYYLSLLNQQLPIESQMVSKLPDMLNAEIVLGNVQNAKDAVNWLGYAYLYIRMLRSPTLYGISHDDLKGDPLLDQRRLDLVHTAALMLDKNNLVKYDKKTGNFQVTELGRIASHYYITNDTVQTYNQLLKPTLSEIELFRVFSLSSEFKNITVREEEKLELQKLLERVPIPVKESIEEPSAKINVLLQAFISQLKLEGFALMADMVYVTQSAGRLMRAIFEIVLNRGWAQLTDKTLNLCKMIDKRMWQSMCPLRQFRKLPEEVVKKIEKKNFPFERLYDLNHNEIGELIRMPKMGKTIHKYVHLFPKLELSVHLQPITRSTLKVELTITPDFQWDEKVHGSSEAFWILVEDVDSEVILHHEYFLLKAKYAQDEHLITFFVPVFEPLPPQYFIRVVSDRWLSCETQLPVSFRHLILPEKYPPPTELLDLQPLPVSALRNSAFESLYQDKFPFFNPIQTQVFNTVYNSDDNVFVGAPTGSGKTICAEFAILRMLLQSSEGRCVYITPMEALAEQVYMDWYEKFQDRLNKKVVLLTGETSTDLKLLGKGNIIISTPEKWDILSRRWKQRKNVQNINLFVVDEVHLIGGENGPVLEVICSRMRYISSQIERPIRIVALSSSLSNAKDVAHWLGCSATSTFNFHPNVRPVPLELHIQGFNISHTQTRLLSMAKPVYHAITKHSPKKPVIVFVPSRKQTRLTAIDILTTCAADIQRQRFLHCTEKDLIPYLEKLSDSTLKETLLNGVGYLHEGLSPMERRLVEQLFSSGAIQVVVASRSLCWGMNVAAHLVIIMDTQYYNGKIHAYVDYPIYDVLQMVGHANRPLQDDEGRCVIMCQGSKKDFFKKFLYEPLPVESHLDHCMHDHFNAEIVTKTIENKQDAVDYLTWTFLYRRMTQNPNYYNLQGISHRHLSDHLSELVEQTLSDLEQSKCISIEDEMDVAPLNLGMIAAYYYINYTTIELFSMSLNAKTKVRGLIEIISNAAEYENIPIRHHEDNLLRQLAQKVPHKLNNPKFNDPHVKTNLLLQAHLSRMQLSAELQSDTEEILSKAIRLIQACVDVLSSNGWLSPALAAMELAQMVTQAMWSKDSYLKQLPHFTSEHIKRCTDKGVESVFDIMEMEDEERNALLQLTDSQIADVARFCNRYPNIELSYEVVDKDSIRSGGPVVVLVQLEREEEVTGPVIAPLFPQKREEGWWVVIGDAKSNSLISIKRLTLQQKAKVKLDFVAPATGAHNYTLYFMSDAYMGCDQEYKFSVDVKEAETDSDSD
Chain of Serine/threonine-protein kinase N2 (Q16513 whole entry): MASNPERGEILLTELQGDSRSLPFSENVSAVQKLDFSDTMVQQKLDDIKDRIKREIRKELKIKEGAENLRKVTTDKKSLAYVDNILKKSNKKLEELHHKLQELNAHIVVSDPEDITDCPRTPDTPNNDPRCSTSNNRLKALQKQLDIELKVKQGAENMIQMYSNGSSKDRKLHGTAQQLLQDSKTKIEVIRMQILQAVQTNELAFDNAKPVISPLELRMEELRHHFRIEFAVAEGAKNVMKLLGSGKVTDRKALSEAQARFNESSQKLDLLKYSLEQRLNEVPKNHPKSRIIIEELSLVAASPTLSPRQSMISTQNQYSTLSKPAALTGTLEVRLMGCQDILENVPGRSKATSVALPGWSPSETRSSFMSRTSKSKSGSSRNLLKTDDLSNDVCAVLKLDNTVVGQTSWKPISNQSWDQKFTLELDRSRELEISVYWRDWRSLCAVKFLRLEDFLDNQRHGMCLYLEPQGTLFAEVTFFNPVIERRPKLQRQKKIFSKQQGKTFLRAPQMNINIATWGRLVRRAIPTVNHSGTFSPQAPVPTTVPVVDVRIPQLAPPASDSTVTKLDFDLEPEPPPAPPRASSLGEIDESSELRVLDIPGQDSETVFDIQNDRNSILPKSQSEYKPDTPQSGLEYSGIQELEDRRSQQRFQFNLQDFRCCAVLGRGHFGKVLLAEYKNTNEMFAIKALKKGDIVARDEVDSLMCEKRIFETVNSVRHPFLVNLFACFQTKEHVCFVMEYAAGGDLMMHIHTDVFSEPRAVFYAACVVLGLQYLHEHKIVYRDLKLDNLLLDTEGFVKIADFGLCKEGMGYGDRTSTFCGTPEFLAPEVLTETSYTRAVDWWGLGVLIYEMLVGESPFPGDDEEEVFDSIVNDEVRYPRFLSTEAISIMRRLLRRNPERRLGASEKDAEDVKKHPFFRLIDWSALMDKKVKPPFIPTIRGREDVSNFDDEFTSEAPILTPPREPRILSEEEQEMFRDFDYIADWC

For `FC(F)(F)c1ccc(/C=C/c2nc(COc3ccc(CCCCn4ccnn4)cc3)co2)cc1` [MUBRITINIB], the Kd in test [1], in [2], in test [3], in [4], in [5] and in test [6] was > 30 µM (inactive) throughout. The Kd in test [7], in [8], in test [9] and in test [10] was > 30 µM (inactive) each time.
For the molecule `COc1ncc(-c2ccc3nccc(-c4ccnnc4)c3c2)cc1NS(=O)(=O)c1ccc(F)cc1F` [OMIPALISIB], the Kd in test [1], in test [2], in test [3], in test [4], in test [5] and in [6] was > 30 µM (inactive) each time. Also, the Kd in test [7], in test [8], in test [9] and in test [10] was > 30 µM (inactive) in each case.
For the molecule `CCCCCCCCCCCCCCCCCCOP(=O)([O-])OC1CC[N+](C)(C)CC1` [PERIFOSINE], the Kd in [1], in test [2], in test [3], in test [4], in test [5] and in [6] was > 30 µM (inactive) throughout. Also, the Kd in test [7], in [8], in [9] and in [10] was > 30 µM (inactive) each time.
Take `Cc1nc(Nc2n[nH]c3c2CN(C(=O)N[C@H](CN(C)C)c2ccccc2)C3(C)C)c2sccc2n1` [PF-03758309]: the Kd in test [1] was > 30 µM (inactive); in test [2] it was 22.5 µM (active); in test [3] it was 2.54 µM (active); in [4], > 30 µM (inactive); in test [5], 0.802 µM (active); in [6] it was > 30 µM (inactive). Moreover, the Kd is > 30 µM (inactive) in test [7], > 30 µM (inactive) in [8], 2.2 µM (active) in test [9] and > 30 µM (inactive) in [10].
As to `Cc1cnc(NC(=O)Nc2cc(Br)c(C)cc2OC[C@@H]2CNCCO2)cn1` [RABUSERTIB], the Kd in [1], in test [2], in test [3], in test [4], in test [5] and in test [6] was > 30 µM (inactive) in each case. In addition, the Kd in test [7], in test [8], in test [9] and in test [10] was > 30 µM (inactive) each time.
For the molecule `CO[C@H]1C[C@@H]2CC[C@@H](C)[C@@](O)(O2)C(=O)C(=O)N2CCCC[C@H]2C(=O)O[C@H]([C@H](C)C[C@@H]2CC[C@@H](OP(C)(C)=O)[C@H](OC)C2)CC(=O)[C@H](C)/C=C(\C)[C@@H](O)[C@@H](OC)C(=O)[C@H](C)C[C@H](C)/C=C/C=C/C=C/1C` [RIDAFOROLIMUS], the Kd in test [1], in [2], in test [3], in test [4], in [5] and in test [6] was > 30 µM (inactive) throughout. The Kd in [7], in test [8], in [9] and in [10] was > 30 µM (inactive) each time.
`N#CC1(c2ccc(NC(=O)c3cccnc3NCc3ccncc3)cc2)CCCC1` [RIVOCERANIB]: the Kd in [1], in [2], in test [3], in test [4], in [5] and in [6] was > 30 µM (inactive) throughout. Also, the Kd in test [7], in test [8], in test [9] and in test [10] was > 30 µM (inactive) throughout.
Take `O=c1[nH]ccc2cc(OC3CCNCC3)ccc12` [SAR-407899 FREE BASE]: the Kd was > 30 µM (inactive) in test [1]; > 30 µM (inactive) in test [2]; 0.013 µM in test [3]; > 30 µM (inactive) in test [4]; > 30 µM (inactive) in [5]; > 30 µM (inactive) in test [6]. Moreover, the Kd in [7] is 0.008 µM (active); in test [8], > 30 µM (inactive); in [9], > 30 µM (inactive); in test [10], > 30 µM (inactive).
For the molecule `CN1CCN(CCOc2cc(OC3CCOCC3)c3c(Nc4c(Cl)ccc5c4OCO5)ncnc3c2)CC1` [SARACATINIB], the Kd in test [1] was > 30 µM (inactive); in test [2], > 30 µM (inactive); in test [3], > 30 µM (inactive); in test [4], > 30 µM (inactive); in test [5] it was > 30 µM (inactive); in test [6], 0.113 µM (active). Also, the Kd in test [7], in test [8], in test [9] and in test [10] was > 30 µM (inactive) throughout.
Turning to `Cn1cc(-c2cnn3c(N)c(Br)c([C@@H]4CCCNC4)nc23)cn1` [SCH-900776], the Kd in test [1] is > 30 µM (inactive); in test [2], > 30 µM (inactive); in [3], 2.68 µM; in [4], > 30 µM (inactive); in test [5] it was > 30 µM (inactive); in test [6], > 30 µM (inactive). In addition, the Kd in test [7], in [8], in [9] and in [10] was > 30 µM (inactive) in each case.
